Measured values reported in patent publication US9796753B2, “N-substituted indenoisoquinolines and syntheses thereof” (Purdue Research Foundation, priority 2005, dated 2017).
Like-named read-outs stand apart in the source and are kept apart here. One block for each molecule: values may come before it.

Legend:
prostate DU-145 = experiment: COMPARE screening (NCI human cancer cell line screen), cytotoxicity GI50; format: cell-based
How it was run: (§1)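 Read-out is sulforhodamine B optical density, expressed as a ratio to untreated control and plotted as percentage growth against log10 compound concentration. Exposure lasted 48 h at five concentrations from 100 to 0.01 μM in the NCI60 screen.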

CNS SF-539 = experiment: as above; format: cell-based
How it was run: as §1

colon HCT-116 = experiment: as above; format: cell-based
How it was run: as §1

renal SN12C = experiment: as above; format: cell-based
How it was run: as §1

melanoma UACC-62 = experiment: as above; format: cell-based
How it was run: as §1

ovarian OVCAR-3 = experiment: as above; format: cell-based
How it was run: as §1

lung HOP-62 = experiment: as above; format: cell-based
How it was run: as §1

[1] = system: all human cancer cell lines successfully tested; experiment: NCI screen mean graph midpoint (MGM) for growth inhibition; format: cell-based
How it was run: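 NCI60 panel cells exposed to compound at 100, 10, 1, 0.1 and 0.01 μM for 48 h, then sulforhodamine B staining. Percentage growth versus control plotted against log concentration; MGM is the midpoint across all lines tested.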

breast MCF-7 = experiment: NCI60 antiproliferative activity, cytotoxicity GI50; format: cell-based, human
Method: Selected compounds were tested for antiproliferative activity in the National Cancer Institute's developmental therapeutics assay 60 cell line screen (NCI60). The cells were incubated with the tested compounds at 100, 10, 1, 0.1, and 0.01 μM concentrations for 48 h before treatment with sulforhodamine B dye. Optical densities were recorded, and their ratios relative to that of the control were plotted as percentage growth against the log 10 of the tested compound concentrations.

breast MDA-MB-435 = experiment: COMPARE screening (NCI human cancer cell line screen), cytotoxicity GI50; format: cell-based; details: Homo sapiens
[2] = Table 1, average GI50 of all cell lines tested (approximately 55), test range 10^−8 to 10^−4 molar
[3] = MDA-MB-435, read-out: cytotoxicity (GI50) breast MDA-MB-435
[4] = Homo sapiens, DU-145, read-out: cytotoxicity (GI50) prostate DU-145
[5] = Homo sapiens, CNSSF-539, read-out: cytotoxicity (GI50) CNS SF-539
[6] = Homo sapiens, HCT-116, read-out: cytotoxicity (GI50) colon HCT-116
[7] = Homo sapiens, SN12C, read-out: cytotoxicity (GI50) renal SN12C
[8] = Homo sapiens, UACC-62, read-out: cytotoxicity (GI50) melanoma UACC-62
[9] = Homo sapiens, OVCAR-3, read-out: cytotoxicity (GI50) ovarian OVCAR-3
[10] = Homo sapiens, HOP-62, read-out: cytotoxicity (GI50) lung HOP-62

SMILES: COc1cc2c(=O)n(CCCN3CCOCC3)c3c(c2cc1O)C(=O)c1cc2c(cc1-3)OCO2 [Compound 18]
- GI50 (prostate DU-145): 0.3 µM
- GI50 (CNS SF-539): 0.3 µM
- GI50 (colon HCT-116): 0.39 µM
- GI50 (renal SN12C): 0.2 µM
- GI50 (melanoma UACC-62): 0.3 µM
- GI50 (ovarian OVCAR-3): 900 nM
- GI50 (lung HOP-62): 0.3 µM
- MGM (mean GI50 across cell lines) ([1]; Table 6, all human cancer cell lines successfully tested, range 10^−8 to 10^−4 molar, with standard error): 400 ± 5 nM
- GI50 (breast MCF-7): 100 nM

SMILES: CC[C@@]1(O)C(=O)OCc2c1cc1n(c2=O)Cc2cc3ccccc3nc2-1 [Compound S-1, camptothecin, reference compound]
- GI50 (breast MDA-MB-435; MDA-MB-435, Table 1, concentration corresponding to 50% growth inhibition, read-out: cytotoxicity (GI50) breast MDA-MB-435): 0.04 µM
- GI50 (breast MDA-MB-435; breast MDA-MB-435, concentration corresponding to 50% growth inhibition, read-out: cytotoxicity (GI50 in μM) breast MDA-MB-435): 0.04 µM
- GI50 (prostate DU-145; Homo sapiens, DU-145, Table 1, concentration corresponding to 50% growth inhibition, read-out: cytotoxicity (GI50) prostate DU-145): 0.01 µM
- GI50 (prostate DU-145; Homo sapiens, DU-145, Table 6, NCI60, 48 h, sulforhodamine B, read-out: Cytotoxicity (GI50) prostate DU-145): 0.01 µM
- GI50 (prostate DU-145; Homo sapiens, prostate DU-145, concentration corresponding to 50% growth inhibition, read-out: cytotoxicity (GI50 in μM) prostate DU-145): 0.01 µM
- GI50 (CNS SF-539; Homo sapiens, CNSSF-539, CNS SF-539, concentration corresponding to 50% growth inhibition, read-out: cytotoxicity (GI50 in μM) CNS SF-539): 0.01 µM
- GI50 (CNS SF-539; Homo sapiens, CNSSF-539, Table 1, concentration corresponding to 50% growth inhibition, read-out: cytotoxicity (GI50) CNS SF-539): 0.01 µM
- GI50 (colon HCT-116; Homo sapiens, HCT-116, Table 1, concentration corresponding to 50% growth inhibition, read-out: cytotoxicity (GI50) colon HCT-116): 0.03 µM
- GI50 (colon HCT-116; Homo sapiens, HCT-116, Table 6, NCI60, 48 h, sulforhodamine B, read-out: Cytotoxicity (GI50) Colon HCT-116): 0.03 µM
- GI50 (colon HCT-116; Homo sapiens, colon HCT-116, concentration corresponding to 50% growth inhibition, read-out: cytotoxicity (GI50 in μM) colon HCT-116): 0.03 µM
- GI50 (renal SN12C; Homo sapiens, SN12C, Table 1, concentration corresponding to 50% growth inhibition, read-out: cytotoxicity (GI50) renal SN12C): 0.02 µM
- GI50 (renal SN12C; Homo sapiens, SN12C, Table 6, NCI60, 48 h, sulforhodamine B, read-out: Cytotoxicity (GI50) renal SN12C): 0.02 µM
- GI50 (renal SN12C; Homo sapiens, renal SN12C, concentration corresponding to 50% growth inhibition, read-out: cytotoxicity (GI50 in μM) renal SN12C): 0.02 µM
- GI50 (melanoma UACC-62; Homo sapiens, UACC-62, Table 1, concentration corresponding to 50% growth inhibition, read-out: cytotoxicity (GI50) melanoma UACC-62): 0.01 µM
- GI50 (melanoma UACC-62; Homo sapiens, UACC-62, Table 6, NCI60, 48 h, sulforhodamine B, read-out: Cytotoxicity (GI50) melanoma UACC-62): 0.01 µM
- GI50 (melanoma UACC-62; Homo sapiens, melanoma UACC-62, concentration corresponding to 50% growth inhibition, read-out: cytotoxicity (GI50 in μM) melanoma UACC-62): 0.01 µM
- GI50 (lung HOP-62; Homo sapiens, HOP-62, Table 1, concentration corresponding to 50% growth inhibition, read-out: cytotoxicity (GI50) lung HOP-62): 0.01 µM
- GI50 (lung HOP-62; Homo sapiens, HOP-62, Table 6, NCI60, 48 h, sulforhodamine B, read-out: Cytotoxicity (GI50) lung HOP-62): 0.01 µM
- GI50 (lung HOP-62; Homo sapiens, lung HOP-62, concentration corresponding to 50% growth inhibition, read-out: cytotoxicity (GI50 in μM) lung HOP-62): 0.01 µM
- GI50 ([1]; Homo sapiens, read-out: MGM GI50): 40.5 ± 18.7 nM
- MGM (mean graph midpoint for growth inhibition) [1, 2]: .0405 ± 0.0187 µM
- GI50 ([1]; all human cancer cell lines successfully tested, read-out: MGM (mean graph midpoint for growth inhibition)): 40.5 ± 18.7 nM
- GI50 (breast MCF-7; Homo sapiens, MCF7, Table 6, NCI60, 48 h, sulforhodamine B, read-out: Cytotoxicity (GI50) breast MCF-7): 10 nM

SMILES: Cl.NCCCCCCCCCCn1c2c(c3ccccc3c1=O)C(=O)c1ccccc1-2 [Compound 5at, 6-(10-Aminodecyl)-5,6-dihydro-5,11-dioxo-11H-indeno[1,2-c]isoquinoline Hydrochloride]
- GI50 (breast MDA-MB-435; [3]): 11.7 µM
- GI50 (prostate DU-145; [4]): 3.47 µM
- GI50 (CNS SF-539; [5]): 1.82 µM
- GI50 (colon HCT-116; [6]): 2.75 µM
- GI50 (renal SN12C; [7]): 3.31 µM
- GI50 (melanoma UACC-62; [8]): 13.8 µM
- GI50 (ovarian OVCAR-3; [9]): 10700 nM
- GI50 (lung HOP-62; [10]): 4.79 µM
- melting point: 189 to 192 °C
- MGM (mean GI50 across cell lines) [1, 2]: 5500 nM

Second part, led by results:

- melting point: 228 to 231 °C
SMILES: Cl.NCCCCCCCn1c2c(c3ccccc3c1=O)C(=O)c1ccccc1-2 [Compound 5aq, 6-(7-Aminoheptyl)-5,6-dihydro-5,11-dioxo-11H-indeno[1,2-c]isoquinoline Hydrochloride]
- GI50 (breast MDA-MB-435; [3]): 2.24 µM
- GI50 (prostate DU-145; [4]): 0.832 µM
- GI50 (CNS SF-539; [5]): 1.78 µM
- GI50 (colon HCT-116; [6]): 1.26 µM
- GI50 (renal SN12C; [7]): 1.66 µM
- GI50 (melanoma UACC-62; [8]): 2 µM
- GI50 (ovarian OVCAR-3; [9]): 1700 nM
- GI50 (lung HOP-62; [10]): 1.2 µM
- MGM (mean graph midpoint for growth inhibition) [1, 2]: 1.66 ± 0.155 µM

- melting point: 182 to 185 °C
SMILES: Cl.NCCCCCCCCn1c2c(c3ccccc3c1=O)C(=O)c1ccccc1-2 [Compound 5ar, 6-(8-Aminooctyl)-5,6-dihydro-5,11-dioxo-11H-indeno[1,2-c]isoquinoline Hydrochloride]
- GI50 (breast MDA-MB-435; [3]): 5.62 µM
- GI50 (prostate DU-145; [4]): 3.39 µM
- GI50 (CNS SF-539; [5]): 2.82 µM
- GI50 (colon HCT-116; [6]): 1.66 µM
- GI50 (renal SN12C; [7]): 3.47 µM
- GI50 (melanoma UACC-62; [8]): 3.8 µM
- GI50 (ovarian OVCAR-3; [9]): 3470 nM
- GI50 (lung HOP-62; [10]): 2.14 µM
- MGM (mean GI50 across cell lines) [1, 2]: 3710 nM
